Experiments:
P. aeruginosa (PAO1-GFP) = assay: Eye infection model, imaging of infected cornea under TRITC channel; assay type: in vivo; settings: mouse cornea infected with PAO1-GFP for 2 days, 10 minutes incubation with compound
Description: (A) Propagation of Pseudomonas aeruginosa (PAO1-GFP) after infecting into mouse eyes. GFP signals were detected after 12 hours later after infecting bacteria and signals were fully saturated after 24 hours later; Scale bar=2 mm. (B) Tests of amyloid targeting compounds in eye infection models. The model was generated by inoculation of a GFP tagged P. aeruginosa PAO1 strain into the eye after making scratches in cornea. Images were taken in bright field and TRITC from ketamine/xylazine anesthetized mice and compounds signals were examined under TRITC channel after incubation with compounds for 10 minutes at room temperature. Scale bar=2 mm.
P. aeruginosa (PAO1-GFP) was grown at 37° C. in ABTGC media for 16 h. 500 μL of cultured PAO1-GFP was transferred to 1.5 mL Eppendorf tube and centrifuged at 14 000 g for 3 min. Supernatant was removed and pellet was washed with PBS buffer 3 times. Finally, pellet was resuspended in 250 μL of PBS buffer.
Mice were anesthetized ketamine/xylazine by peritoneal injection before scratches were made in cornea with blade. PAO1-GFP (1 μL, 2×107˜10^8 CFU) dissolved in PBS buffer was treated in left eye and PBS buffer was treated in right eye. P. aeruginosa inoculated mice were incubated for 2 days before in vivo experiments. Animal handling was in accordance with the Institutional Aminal Care and Use Committee of Singapore Bioimaging Consortium (Agency of Science, Technology and Research, Singapore).
Biofilm is stained by amyloid targeting compounds through interacting with FAP proteins which is one of the components for intact biofilm. Thus, amyloid targeting compounds were tested in eye infection model which is one of the naturally reported symptoms of P. aeruginosa containing biofilms. Eye infection model was generated in black mouse. […] GFP signals were detected after 12 hours incubation with P. aeruginosa-GFP bacteria.
Fluorescence signals under TRITC channel were checked to confirm infection on cornea and amyloid compounds were tested under TRITC channel after incubation for 10 minutes. […]

purified amyloid = purified amyloid (Pseudomonas aeruginosa, UniProt Q9I2F0); assay: Surface plasma resonance assay with purified amyloid immobilized on chips; assay type: binding
Chain of purified amyloid (Q9I2F0 25-340): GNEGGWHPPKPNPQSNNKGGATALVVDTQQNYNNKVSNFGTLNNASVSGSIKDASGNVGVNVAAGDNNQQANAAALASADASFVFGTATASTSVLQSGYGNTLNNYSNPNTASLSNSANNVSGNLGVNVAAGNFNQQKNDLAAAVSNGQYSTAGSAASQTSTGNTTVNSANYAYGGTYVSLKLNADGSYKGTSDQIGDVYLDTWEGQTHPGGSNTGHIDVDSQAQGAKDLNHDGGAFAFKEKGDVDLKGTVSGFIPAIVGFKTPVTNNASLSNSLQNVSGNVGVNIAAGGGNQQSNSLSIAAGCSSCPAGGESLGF
Description: In a biofilm screening, two different types of biofilms (biofilm versus amyloid deficient biofilm) were treated with compounds and hits were identified by selective staining of biofilms containing amyloid structures. Thus, the binding affinity of four compounds with the purified amyloid subunit (fibril) protein was validated by surface plasma resonance assay. The subunit protein was immobilized on chips and each of compounds was flowed continuously. Thioflavin T, BDN1 B2 and BDNAC3 E6 were tested with hit compounds. […] (A) TEM images of purified amyloid proteins. Scale bar=400 nm. (B) Surface plasma resonance assay of four amyloid targeting compounds with purified amyloid.
Amyloids were prepared in HEPES buffer (0.01 M HEPES, pH 7.4, 0.15 M NaCl, 3 mM EDTA and 0.005% P20). Amyloid fibers were fragmented with sonication at 80 Hz for 10 s and centrifuged at 14 000 g for 30 s to remove any large fibers. Concentrate (40 μL) was mixed with 10 mM sodium acetate (120 μL), pH 5.5 right before immobilization.
SPR experiments were performed at 25° C. using Biacore T-200 biosensor with research grade CM5-S sensor chips (Biacore, GE Healthcare). Carboxymethylated CM5-S chips were activated using 70 μL of 0.2 M 1-ethyl-3-[3-(dimethylamino)propyl] carbodiimide hydrochloride (EDC) and 0.05 M N-hydroxysuccinimide (NHS) in a 1:1 ratio. Amyloid in sodium acetate solution (100 μL) was injected over the activated surface until an immobilization level of 7700 response units (RU) was reached. Ethanolamine hydrochloride (1.0 M), pH 8.5 was injected across the surface for 5 min to block any residual activated-unreacted carboxyl groups. Compounds were dissolved into HEPES buffer containing final concentration of 5% DMSO and serially diluted to 340 nM, 1.03, 3.09, 9.26, 27.78, 83.33 μM. Tht+ was prepared similarly as positive control. Replicates of the diluted compounds were injected across a unmodified flow cell and amyloid-immobilized flow cell in a serial manner for association phase of 60 s followed by dissociation phase of 5 min. […] The chip surface was rinsed using HEPES buffer. All sensorgrams were double-referenced with responses from unmodified channel and blank HEPES buffer injections. Equilibrium responses from the compounds were plotted against logarithmic of their corresponding concentrations where the binding affinities were calculated from 50% saturation.
First batch of screening was done under varying amyloid expression conditions for specifically isolating amyloid targeting compounds and four compounds were isolated from cell based screening. […] Finally, four compounds were examined by surface plasma resonance assay whether those have binding specificity with putative target, namely amyloid. Four hit compounds were examined with thioflavin T and two negative controls on chips after immobilizing purified amyloid.

[1] = system: PAO1Δfap-GFP strain biofilm; assay: Mouse implant model, silicone tubes coated with PAO1Δfap-GFP biofilm; assay type: in vivo, BALB/c mice; settings: 100 μM (200 μL) injected via the peritoneal cavity, 2 h before recovering implants
Source text: (§1) CLSM images of a GFP tagged P. aeruginosa PAO1 strain colonizing silicone implants after removal from BALB/c mice at day 1 post insertion. Green fluorescent areas represent P. aeruginosa. Insertion of silicone tube into mice which was precoated with (A) PAO1Δfap-GFP and (B) PAO1-GFP biofilms. Images of the microcolonies adhering to the silicone implants with CDy11. Only PAO1-GFP biofilms coated silicone tube was stained by CDy11; Scale bars=10 μm.
(§2) One bacterial colony (PAO1-GFP) was picked up from the plate to inoculate an overnight culture in LB (Luria Broth) media in 37° C. incubator with 110 rpm/min for 20 h. Silicone tubes (Ole Dich) were cut with a thickness of 4 mm and were sterilized in 0.5% NaClO for overnight. Next day, 25 mL of overnight cultured media was transferred to 50 mL conical tube and pellet was collected by centrifuging at 3000 rpm for 10 min. Subsequently, pellet was suspended with 2 mL of LB media before optical density was observed under 600 nm wavelength.
(§3) Sterilized silicone was washed twice in 0.9% NaCl solution. Silicone tubes (8 pieces) in 50 mL flask were incubated with 10 mL of diluted bacteria (OD600=0.1) in 0.9% NaCl solution in rotationary shaker at 37° C. with 110 rpm/min for 20 h. […]
(§4) All silicone tubes were collected after 2 h incubation to observe CDy11 fluorescence of the inner surface of the silicone tube by means of laser confocal scanning microscopy. […]

[2] = system: P. aeruginosa biofilm (PAO1-GFP); assay: Mouse implant model, silicone tubes coated with PAO1-GFP biofilm; assay type: in vivo, BALB/c mice; settings: 100 μM (200 μL) injected via the peritoneal cavity, 2 h before recovering implants; listed as CDy11
Source text: as §1, §2, §3, §4

Immune cells = assay: Mouse implant model, silicone tubes without P. aeruginosa precoating; assay type: in vivo, BALB/c mice; settings: same amount injected via the peritoneal cavity; data not shown
Description: After anesthesia of mice with ketamine/xylazine mix by intraperitoneal injection, the mouse was placed ventral side up on plate. Fur was clipped and the skin was swabbed with 70% ethanol. An incision of approximately 0.5-1 cm was made in the left groin area. Then an implant prepared the day before was inserted into peritoneal cavity via the incision. The incision was closed with a suture and healed on a warm pad at 26-28° C.
The inventors also applied a mouse implant model to test the capacity of CDy11 (BDNAC3 D8) to detect P. aeruginosa biofilms in a surgical format. Silicone tubes were precolonized by bacteria and subsequently inserted into the peritoneal cavity 1 day before the experiment. BALB/c mice were assigned to each of the two groups and 100 μM CDy11 (200 μL) was injected into the mice via the peritoneal cavity 2 h before recovering the implants. As a mock control, a similar volume of buffer was injected into the second set of mice. In addition, CDy11 was injected into a set of mice which had been installed with uncolonized silicone tubes in the peritoneal cavity.
All silicone tubes were collected after 2 h incubation to observe CDy11 fluorescence of the inner surface of the silicone tube by means of laser confocal scanning microscopy. […] The silicone tubes without P. aeruginosa precoating were also examined by injection of same amount of CDy11. […]

Structure (SMILES)	visualization of infected eyes (P. aeruginosa (PAO1-GFP))	Kd (purified amyloid)	staining of PAO1Δfap-GFP biofilm coated silicone tube [1]	staining of PAO1-GFP biofilm coated silicone tube [2]	staining of immune cells in silicone tubes without P. aeruginosa precoating (Immune cells)
COc1cc(Cl)cc(/C=C/c2cc(C)c3n2[B-](F)(F)[N+]2=CC=CC2=C3c2ccc(N)cc2)c1OC [BDN2 H2]	visualized	61 ± 3 µM			
COc1cc(/C=C/c2cc(C)c3n2[B-](F)(F)[N+]2=CC=CC2=C3c2ccc(N)cc2)c(Br)c(Br)c1O [BDN3 F3]		16 ± 1 µM			
COc1ccc(/C=C/c2cc(C)c3n2[B-](F)(F)[N+]2=CC=CC2=C3c2ccc(NC(C)=O)cc2)c(F)c1 [BDNAC3 D8]	visualized	29 ± 2 µM	not stained	specifically stained	not stained
Cc1ccc2c(c1)sc(-c1ccc(N(C)C)cc1)[n+]2C [thioflavin T, reference compound]		85 ± 7 µM			
Cc1cc(/C=C/c2ccc(-c3ccc([N+](=O)[O-])cc3)o2)n2c1C(c1ccc(N)cc1)=C1C=CC=[N+]1[B-]2(F)F [BDN3 G7]	visualized	28 ± 5 µM			
